According to patent publication US8883766B2, “Ion channel modulators and methods of use” (Vertex Pharmaceuticals Incorporated, priority 2007, dated 2014):
pIC50: −log10 of the molar value.

Molecular target: T1, NaV1.3 (Homo sapiens, UniProt Q9NY46)
T1 construct: expressed in transfected cells
Experiment: not given
Conditions: read-out: TTX IC50; cited from earlier work

T1 sequence (Q9NY46 whole entry): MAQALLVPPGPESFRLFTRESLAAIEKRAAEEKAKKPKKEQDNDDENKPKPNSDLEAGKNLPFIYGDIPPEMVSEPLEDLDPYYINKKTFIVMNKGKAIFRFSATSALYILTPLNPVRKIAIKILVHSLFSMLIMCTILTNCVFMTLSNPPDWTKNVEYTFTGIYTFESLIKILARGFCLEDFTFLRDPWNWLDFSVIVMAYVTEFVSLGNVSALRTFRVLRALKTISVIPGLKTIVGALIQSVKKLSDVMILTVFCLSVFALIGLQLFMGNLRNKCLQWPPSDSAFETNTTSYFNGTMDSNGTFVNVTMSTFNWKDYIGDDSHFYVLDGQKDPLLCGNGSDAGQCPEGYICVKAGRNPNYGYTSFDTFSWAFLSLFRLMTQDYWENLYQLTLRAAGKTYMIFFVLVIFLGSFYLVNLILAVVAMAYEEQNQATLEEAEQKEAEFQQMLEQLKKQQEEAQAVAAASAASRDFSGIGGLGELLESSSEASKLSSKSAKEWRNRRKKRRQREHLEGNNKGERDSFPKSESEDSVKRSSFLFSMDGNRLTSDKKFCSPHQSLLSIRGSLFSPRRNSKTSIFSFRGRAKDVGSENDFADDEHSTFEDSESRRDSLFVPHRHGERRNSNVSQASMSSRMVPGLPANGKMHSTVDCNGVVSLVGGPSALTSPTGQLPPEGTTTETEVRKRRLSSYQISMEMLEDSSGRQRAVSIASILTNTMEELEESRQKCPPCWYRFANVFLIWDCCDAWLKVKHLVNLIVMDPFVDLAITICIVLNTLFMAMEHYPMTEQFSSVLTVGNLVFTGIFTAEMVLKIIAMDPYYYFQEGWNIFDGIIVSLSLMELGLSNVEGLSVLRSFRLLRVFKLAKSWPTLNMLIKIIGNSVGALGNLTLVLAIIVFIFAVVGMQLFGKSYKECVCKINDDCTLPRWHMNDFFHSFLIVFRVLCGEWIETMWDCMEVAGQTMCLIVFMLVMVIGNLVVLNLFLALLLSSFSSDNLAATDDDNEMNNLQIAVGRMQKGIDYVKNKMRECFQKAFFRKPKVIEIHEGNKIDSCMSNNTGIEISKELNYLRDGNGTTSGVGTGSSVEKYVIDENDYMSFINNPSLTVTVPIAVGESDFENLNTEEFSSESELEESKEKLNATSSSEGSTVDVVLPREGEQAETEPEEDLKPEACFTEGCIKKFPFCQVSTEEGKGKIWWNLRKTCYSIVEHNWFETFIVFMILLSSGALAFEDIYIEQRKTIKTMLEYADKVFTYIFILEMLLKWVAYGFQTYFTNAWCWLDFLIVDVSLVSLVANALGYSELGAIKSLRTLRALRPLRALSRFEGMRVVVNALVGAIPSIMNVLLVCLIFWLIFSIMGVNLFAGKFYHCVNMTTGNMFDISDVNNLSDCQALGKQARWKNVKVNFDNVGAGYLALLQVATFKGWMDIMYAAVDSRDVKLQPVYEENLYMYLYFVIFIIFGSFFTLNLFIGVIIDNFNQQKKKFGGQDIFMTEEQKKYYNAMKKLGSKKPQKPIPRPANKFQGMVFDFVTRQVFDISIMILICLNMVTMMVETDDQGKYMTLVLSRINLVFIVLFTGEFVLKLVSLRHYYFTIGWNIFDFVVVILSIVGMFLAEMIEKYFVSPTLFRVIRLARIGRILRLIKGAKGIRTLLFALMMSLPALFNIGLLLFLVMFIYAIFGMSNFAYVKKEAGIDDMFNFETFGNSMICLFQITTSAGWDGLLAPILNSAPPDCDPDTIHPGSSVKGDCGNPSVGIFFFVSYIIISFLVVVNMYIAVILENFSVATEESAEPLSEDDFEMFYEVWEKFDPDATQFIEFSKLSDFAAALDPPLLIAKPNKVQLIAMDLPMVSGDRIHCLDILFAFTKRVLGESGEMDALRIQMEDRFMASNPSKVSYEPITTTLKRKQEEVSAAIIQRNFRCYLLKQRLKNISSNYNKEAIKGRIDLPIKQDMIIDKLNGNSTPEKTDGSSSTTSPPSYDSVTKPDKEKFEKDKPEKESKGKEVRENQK

Structure (SMILES) | pIC50
NC1=N[C@H](O)[C@H]2[C@H]3O[C@]4(O)O[C@@H]([C@@H](O)[C@@]2(N1)[C@@H]4O)[C@]3(O)CO [TTX, tetrodotoxin] | 7.82

Molecular target: T1, NaV1.3
Experiment: VIPR optical membrane potential assay with electrical stimulation, HEK293 cells stably expressing NaV1.3
Assay type: cell-based
Conditions: compound activity for the NaV1.3 receptors
Protocol: Compounds of the invention are useful as antagonists of voltage-gated sodium ion channels. Antagonist properties of test compounds were assessed as follows. Cells expressing the NaV of interest were placed into microtiter plates. After an incubation period, the cells were stained with fluorescent dyes sensitive to the transmembrane potential. The test compounds were added to the microtiter plate. The cells were stimulated with either chemical or electrical means to evoke a NaV dependent membrane potential change from unblocked channels, which was detected and measured with trans-membrane potential-sensitive dyes. Antagonists were detected as a decreased membrane potential response to the stimulus. The optical membrane potential assay utilized voltage-sensitive FRET sensors described by Gonzalez and Tsien (See, Gonzalez, J. E. and R. Y. Tsien (1995) “Voltage sensing by fluorescence resonance energy transfer in single cells” Biophys J 69(4): 1272-80, and Gonzalez, J. E. and R. Y. Tsien (1997) “Improved indicators of cell membrane potential that use fluorescence resonance energy transfer” Chem Biol 4(4): 269-77) in combination with instrumentation for measuring fluorescence changes such as the Voltage/Ion Probe Reader (VIPR®) (See, Gonzalez, J. E., K. Oades, et al. (1999) “Cell-based assays and instrumentation for screening ion-channel targets” Drug Discov Today 4(9): 431-439).
The following is an example of how NaV1.3 inhibition activity is measured using the optical membrane potential method #2. Other subtypes are performed in an analogous mode in a cell line expressing the NaV of interest.
HEK293 cells stably expressing NaV1.3 are plated into 96-well microtiter plates. After an appropriate incubation period, the cells are stained with the voltage sensitive dyes CC2-DMPE/DiSBAC2(3) as follows.
2×CC2-DMPE=20 μM CC2-DMPE: 10 mM CC2-DMPE is vortexed with an equivalent volume of 10% pluronic, followed by vortexing in required amount of HBSS containing 10 mM HEPES. Each cell plate will require 5 mL of 2×CC2-DMPE. 50 μL of 2×CC2-DMPE is added to wells containing washed cells, resulting in a 10 μM final staining concentration. The cells are stained for 30 minutes in the dark at RT.
2×DISBAC2(3) with ABSC1=6 μM DISBAC2(3) and 1 mM ABSC1: The required amount of 10 mM DISBAC2(3) is added to a 50 ml conical tube and mixed with 1 μL 10% pluronic for each mL of solution to be made and vortexed together. Then HBSS/HEPES is added to make up 2× solution. Finally, the ABSC1 is added.
The 2×DiSBAC2(3) solution can be used to solvate compound plates. Note that compound plates are made at 2× drug concentration. Wash stained plate again, leaving residual volume of 50 μL. Add 50 μL/well of the 2×DiSBAC2(3) w/ ABSC1. Stain for 30 minutes in the dark at RT.
The electrical stimulation instrument and methods of use are described in ION Channel Assay Methods PCT/US01/21652, herein incorporated by reference. The instrument comprises a microtiter plate handler, an optical system for exciting the coumarin dye while simultaneously recording the coumarin and oxonol emissions, a waveform generator, a current- or voltage-controlled amplifier, and a device for inserting electrodes in well. Under integrated computer control, this instrument passes user-programmed electrical stimulus protocols to cells within the wells of the microtiter plate.
Use the current-controlled amplifier to deliver stimulation wave pulses for 3 s. Two seconds of pre-stimulus recording are performed to obtain the un-stimulated intensities. Five seconds of post-stimulation recording are performed to examine the relaxation to the resting state.
Data are analyzed and reported as normalized ratios of background-subtracted emission intensities measured in the 460 nm and 580 nm channels. Background intensities are then subtracted from each assay channel. […]

Structure (SMILES) | pIC50
COC(=O)NS(=O)(=O)c1ccc(NC(=O)[C@@H](C)N2CCCc3cccc(Cl)c32)cc1 [Compound 62] | < 5.30
COC(=O)NS(=O)(=O)c1ccc(NC(=O)Cn2cc(C)c3cc(Cl)ccc32)cc1 [Compound 83] | < 5.30
COC(=O)NS(=O)(=O)c1ccc(NC(=O)[C@@H](CO)N2CCCc3cc(Cl)ccc32)cc1 [Compound 73] | < 5.30
C[C@H](C(=O)Nc1ccc(S(=O)(=O)NC(N)=O)cc1)n1ccc2c(F)cccc21 [Compound 63] | 5.30 to 5.70
COC(=O)NS(=O)(=O)c1ccc(NC(=O)COc2ccc(Cl)c(Cl)c2)cc1 [Compound 64] | < 5.30
COC(=O)NS(=O)(=O)c1ccc(NC(=O)Cn2cc(C)c3ccccc32)cc1 [Compound 12] | < 5.30
C[C@H](C(=O)Nc1ccc(S(=O)(=O)NC(=O)C2CC2)cc1)n1ccc2c(F)cccc21 [Compound 21] | < 5.30
COC(=O)NS(=O)(=O)c1ccc(NC(=O)Cn2ccc3cccc(Cl)c32)cc1 [Compound 28] | < 5.30
COc1ccccc1C(=O)NS(=O)(=O)c1ccc(NC(=O)COc2ccnc3c(C(F)(F)F)cccc23)cc1 [Compound 49] | < 5.30
COC(=O)NS(=O)(=O)c1ccc(NC(=O)C(C)(C)n2ccc3c(F)cccc32)cc1 [Compound 85] | < 5.30
C[C@H](C(=O)Nc1ccc(S(=O)(=O)NC(=O)N2CCN(C)CC2)cc1)n1ccc2c(F)cccc21 [Compound 57] | < 5.30
COC(=O)NS(=O)(=O)c1ccc(NC(=O)[C@@H](C)n2ccc3ccc(C(F)(F)F)cc32)cc1 [Compound 87, (R)-methyl 4-(2-(6-(trifluoromethyl)-1H-indol-1-yl)propanamido)phenylsulfonylcarbamate] | > 5.70
COC(=O)NS(=O)(=O)c1ccc(NC(=O)Cn2ccc3ccc(Cl)cc32)cc1 [Compound 70] | < 5.30
Cc1cc(C(=O)NS(=O)(=O)c2ccc(NC(=O)[C@@H](C)n3ccc4c(F)cccc43)cc2)c(C)o1 [Compound 66, (R)—N-(4-(2-(4-fluoro-1H indol-1-yl)propanamido)phenylsulfonyl)-2,5-dimethylfuran-3-carboxamide] | < 5.30
COC(=O)NS(=O)(=O)c1ccc(NC(=O)[C@H](CC(C)C)N2CCCc3cc(Cl)ccc32)cc1 [Compound 5] | < 5.30
COC(=O)NS(=O)(=O)c1ccc(NC(=O)[C@H](C)n2ccc3ccc(C(F)(F)F)cc32)cc1 [Compound 25] | < 5.30
COC(=O)NS(=O)(=O)c1ccc(NC(=O)CCCOc2ccc(Cl)cc2Cl)cc1 [Compound 37] | < 5.30
COC(=O)NS(=O)(=O)c1ccc(NC(=O)NCc2ccc(Cl)c(Cl)c2)cc1 [Compound 30, methyl 4-(3(3,4-dichlorobenzyl)ureido)phenylsulfonylcarbamate] | < 5.30
COC(=O)NS(=O)(=O)c1ccc(NC(=O)CCn2ccc3cccc(Cl)c32)cc1 [Compound 1] | < 5.30
CC(=O)NS(=O)(=O)c1ccc(N)cc1 [Compound 45] | < 5.30

Structure (SMILES) | pIC50
COC(=O)NS(=O)(=O)c1ccc(NC(=O)COc2ccc(F)c(Cl)c2)cc1 [Compound 3] | < 5.30
CCC#CCOC(=O)NS(=O)(=O)c1ccc(NC(=O)[C@@H](C)n2ccc3c(F)cccc32)cc1 [Compound 76] | < 5.30
COC(=O)NS(=O)(=O)c1ccc(NC(=O)[C@H](C)n2ccc3ccc(Cl)cc32)cc1 [Compound 80] | < 5.30
COC(=O)NS(=O)(=O)c1ccc(NC(=O)Cn2ccc3ccc(OC)cc32)cc1 [Compound 7] | < 5.30
COC(=O)NS(=O)(=O)c1ccc(NC(=O)Cn2ccc3cccc(F)c32)cc1 [Compound 69] | < 5.30
COC(=O)NS(=O)(=O)c1ccc(NC(=O)[C@@H](C)Oc2ccc(Cl)cc2C)cc1 [Compound 78] | < 5.30
COC(=O)NS(=O)(=O)c1ccc(NC(=O)c2ccccc2)cc1 [Compound 9] | < 5.30
CCC(=O)NS(=O)(=O)c1ccc(NC(=O)COc2ccnc3c(C(F)(F)F)cccc23)cc1 [Compound 71] | < 5.30
COC(=O)NS(=O)(=O)c1ccc(NC(=O)[C@@H](CC(C)C)N2CCCc3cc(Cl)ccc32)cc1 [Compound 86] | 5.30 to 5.70
COC(=O)NS(=O)(=O)c1ccc(NC(=O)[C@@H](CC(C)C)n2ccc3c(F)cccc32)cc1 [Compound 23, (R)-methyl 4-(2-(4-fluoro-1H-indol-1-yl)-4-methylpentanamido) phenylsulfonylcarbamate] | > 5.70
CC(=O)NS(=O)(=O)c1ccc(NC(=O)[C@@H](C)n2ccc3c(F)cccc32)cc1 [Compound 82] | < 5.30
COC(=O)NS(=O)(=O)c1ccc(NC(=O)CCn2ccc3cc(Cl)ccc32)cc1 [Compound 51] | < 5.30
CCC(=O)NS(=O)(=O)c1ccc(NC(=O)C(C)n2ccc3ccccc32)cc1 (centres unmarked) [Compound 46] | < 5.30
COC(=O)NS(=O)(=O)c1ccc(N2CCN(C(=O)[C@@H](C)N3CCCc4cc(F)ccc43)CC2)cc1 [Compound 61, (R)-methyl 4-(4-(2-(6-fluoro-3,4-dihydroquinolin-1(2H)-yl)propanoyl)piperazin-1-yl)phenylsulfonylcarbamate] | < 5.30
COC(=O)NS(=O)(=O)c1ccc(NC(=O)Cc2ccccc2)cc1 [Compound 56] | < 5.30
COC(=O)NS(=O)(=O)c1ccc(NC(=O)c2cc3c(F)cccc3[nH]2)cc1 [Compound 15] | < 5.30
COC(=O)NS(=O)(=O)c1ccc(NC(=O)c2cc3c(F)cc(F)cc3[nH]2)cc1 [Compound 18] | < 5.30
COC(=O)NS(=O)(=O)c1ccc(NC(=O)NC2Cc3ccccc3C2)cc1 [Compound 2] | < 5.30
COC(=O)NS(=O)(=O)c1ccc(NC(=O)c2cc3c(F)cc(Cl)cc3[nH]2)cc1 [Compound 81] | < 5.30
COC(=O)NS(=O)(=O)c1ccc(N2CC[C@H](N3CCCc4cc(Cl)ccc43)C2=O)cc1 [Compound 53, (S)-methyl 4-(3-(6-chloro-3,4-dihydroquinolin-1(2H)-yl)-2-oxopyrrolidin-1-yl)phenylsulfonylcarbamate] | < 5.30
